What was measured:
[1] = test system: IL-17-induced GROα secretion from HT-29 cells; test: GROα release assay in human colorectal adenocarcinoma epithelial cell (HT-29, ELISA); type: cell-based; settings: Homo sapiens, HT-29, 48 h, 10 ng/mL IL-17A, highest concentration 10 μM, read-out: Cellular assay HT29 cell/CXCL1 IC50
In short: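 HT-29 cells were exposed 48 h at 37°C to IL-17A (final 10 ng/mL) preincubated 15 min with compound (4-fold dilutions, top 10 μM). Secreted GROα was quantified by ELISA against a standard curve, and IC50 obtained by four-parameter fitting.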

[2] = target: human IL-17A / human IL-17RA (Homo sapiens (Human), UniProt Q16552); test: Human IL-17A biochemical assay (HTRF, blocking of IL-17A binding to IL-17RA); settings: 0.4 nM IL-17A, 0.3 nM IL-17RA, max compound concentration 10 uM
human IL-17A / human IL-17RA, sequence (Q16552 24-155): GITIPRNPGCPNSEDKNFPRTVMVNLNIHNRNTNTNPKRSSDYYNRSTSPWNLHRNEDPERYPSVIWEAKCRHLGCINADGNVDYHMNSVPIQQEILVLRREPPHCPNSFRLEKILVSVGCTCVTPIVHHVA
In short: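 Recombinant human IL-17A (0.4 nM) was pre-incubated with compound (top 10 uM, 2.7-fold, 10 points) for 3 h at room temperature in 20 mM HEPES pH 7.5, 50 mM NaCl, 0.1% BSA, 0.2 mM DTT, 0.005% Tween 20. IL-17RA (0.3 nM) was then added for 1 h, followed by anti-6His Tb and anti-human IgG-XL665 detection for 1 h; IC50 from four-parameter fit.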

Compound	IC50 [1] [nM]	IC50 [2] [nM]
CNC(=O)C1(N2C[C@@H](C(C)C)NC2=O)Cc2ccc(NC(=O)[C@@H](NC(=O)c3ccnn3C)C(C3CC3)C3CC3)cc2C1 (stereo partly drawn) [Example 90, N-((2S)-1,1-dicyclopropyl-3-((2-((R)-4-isopropyl-2-oxoimidazolidin-1-yl)-2-(methylcarbamoyl)-2,3-dihydro-1H-inden-5-yl)amino)-3-oxopropan-2-yl)-1-methyl-1H-pyrazole-5-carboxamide]	48.6	37
CNC(=O)C1(N2C[C@@H](C(C)C)NC2=O)Cc2ccc(NC(=O)[C@@H](NC(=O)c3ccnn3C(C)C)C(C3CC3)C3CC3)cc2C1 (stereo partly drawn) [Example 91, N-((2S)-1,1-dicyclopropyl-3-((2-((R)-4-isopropyl-2-oxoimidazolidin-1-yl)-2-(methylcarbamoyl)-2,3-dihydro-1H-inden-5-yl)amino)-3-oxopropan-2-yl)-1-isopropyl-1H-pyrazole-5-carboxamide]	43	71
CNC(=O)C1(N2CC(C3CC3)CNC2=O)Cc2ccc(NC(=O)[C@@H](NC(=O)c3ccnn3C)C3CCCCC3)cc2C1 (stereo partly drawn) [Example 94, N-((1S)-1-cyclohexyl-2-((2-(5-cyclopropyl-2-oxotetrahydropyrimidin-1(2H)-yl)-2-(methylcarbamoyl)-2,3-dihydro-1H-inden-5-yl)amino)-2-oxoethyl)-1-methyl-1H-pyrazole-5-carboxamide]	118	40
CNC(=O)C1(N2C[C@@H](C(C)C)NC2=O)Cc2ccc(NC(=O)C(NC(=O)c3ccnn3C)C3CCc4ccccc43)cc2C1 (stereo partly drawn) [Example 97, N-(1-(2,3-dihydro-1H-inden-1-yl)-2-((2-((R)-4-isopropyl-2-oxoimidazolidin-1-yl)-2-(methylcarbamoyl)-2,3-dihydro-1H-inden-5-yl)amino)-2-oxoethyl)-1-methyl-1H-pyrazole-5-carboxamide]	1860	535
CNC(=O)C1(N2CC(C)CNC2=O)Cc2ccc(NC(=O)[C@@H](NC(=O)c3ccnn3C)C3CCCCC3)cc2C1 (stereo partly drawn) [Example 98, N-((1S)-1-cyclohexyl-2-((2-(5-methyl-2-oxotetrahydropyrimidin-1(2H)-yl)-2-(methylcarbamoyl)-2,3-dihydro-1H-inden-5-yl)amino)-2-oxoethyl)-1-methyl-1H-pyrazole-5-carboxamide]	3280	628
CNC(=O)C1(N2CC(Cc3ccccc3)CNC2=O)Cc2ccc(NC(=O)[C@@H](NC(=O)c3ccnn3C)C3CCCCC3)cc2C1 (stereo partly drawn) [Example 99, N-((1S)-2-((2-(5-benzyl-2-oxotetrahydropyrimidin-1(2H)-yl)-2-(methylcarbamoyl)-2,3-dihydro-1H-inden-5-yl)amino)-1-cyclohexyl-2-oxoethyl)-1-methyl-1H-pyrazole-5-carboxamide]	2480	278
CNC(=O)C1(N2CC(C)(Cc3ccc(OC)cc3)CNC2=O)Cc2ccc(NC(=O)[C@@H](NC(=O)c3ccnn3C)C3CCCCC3)cc2C1 (stereo partly drawn) [Example 100, N-((1S)-1-cyclohexyl-2-((2-(5-(4-methoxybenzyl)-5-methyl-2-oxotetrahydropyrimidin-1(2H)-yl)-2-(methylcarbamoyl)-2,3-dihydro-1H-inden-5-yl)amino)-2-oxoethyl)-1-methyl-1H-pyrazole-5-carboxamide]	2560	886
CCC1CCC(C(NC(=O)c2ccnn2C)C(=O)Nc2ccc3c(c2)CC(C(=O)NC)(N2C[C@@H](C(C)C)NC2=O)C3)CC1 (stereo partly drawn) [Example 101, N-(1-(4-ethylcyclohexyl)-2-((2-((R)-4-isopropyl-2-oxoimidazolidin-1-yl)-2-(methylcarbamoyl)-2,3-dihydro-1H-inden-5-yl)amino)-2-oxoethyl)-1-methyl-1H-pyrazole-5-carboxamide]	45.2	7.5
CNC(=O)C1(N2CC3(CC3)CNC2=O)Cc2ccc(NC(=O)[C@@H](NC(=O)c3ccnn3C)C3CCCCC3)cc2C1 (stereo partly drawn) [Example 102, N-((1S)-1-cyclohexyl-2-((2-(methylcarbamoyl)-2-(6-oxo-5,7-diazaspiro[2.5]octan-5-yl)-2,3-dihydro-1H-inden-5-yl)amino)-2-oxoethyl)-1-methyl-1H-pyrazole-5-carboxamide]	17.3	9.5
CNC(=O)C1(N2C[C@@H](C(C)C)NC2=O)Cc2ccc(NC(=O)C(NC(=O)c3ccnn3C)C3CCCC(C)C3)cc2C1 (stereo partly drawn) [Example 104, N-(2-((2-((R)-4-isopropyl-2-oxoimidazolidin-1-yl)-2-(methylcarbamoyl)-2,3-dihydro-1H-inden-5-yl)amino)-1-(3-methylcyclohexyl)-2-oxoethyl)-1-methyl-1H-pyrazole-5-carboxamide]	23.6	12
CCC1(C)CNC(=O)N(C2(C(=O)NC)Cc3ccc(NC(=O)[C@@H](NC(=O)c4ccnn4C)C4CCCCC4)cc3C2)C1 (stereo partly drawn) [Example 105, N-((1S)-1-cyclohexyl-2-((2-(5-ethyl-5-methyl-2-oxotetrahydropyrimidin-1(2H)-yl)-2-(methylcarbamoyl)-2,3-dihydro-1H-inden-5-yl)amino)-2-oxoethyl)-1-methyl-1H-pyrazole-5-carboxamide]	55.5	15
CC#CCC1CN(C2(C(=O)NC)Cc3ccc(NC(=O)[C@@H](NC(=O)c4ccnn4C)C4CCCCC4)cc3C2)C(=O)N1 (stereo partly drawn) [Example 106, N-((1S)-2-((2-(4-(but-2-yn-1-yl)-2-oxoimidazolidin-1-yl)-2-(methylcarbamoyl)-2,3-dihydro-1H-inden-5-yl)amino)-1-cyclohexyl-2-oxoethyl)-1-methyl-1H-pyrazole-5-carboxamide]	202	48
CC(C)[C@@H]1CN(C2(C(=O)NC(CO)C3CCCC3)Cc3ccc(NC(=O)[C@@H](NC(=O)c4ccnn4C)C4CCCCC4)cc3C2)C(=O)N1 (stereo partly drawn) [Example 107, N-((1S)-1-cyclohexyl-2-((2-((1-cyclopentyl-2-hydroxyethyl)carbamoyl)-2-((R)-4-isopropyl-2-oxoimidazolidin-1-yl)-2,3-dihydro-1H-inden-5-yl)amino)-2-oxoethyl)-1-methyl-1H-pyrazole-5-carboxamide]	34.5	25
CNC(=O)C1(N2CC3(CCC3)CNC2=O)Cc2ccc(NC(=O)[C@@H](NC(=O)c3ccnn3C)C3CCCCC3)cc2C1 (stereo partly drawn) [Example 108, N-((1S)-1-cyclohexyl-2-((2-(methylcarbamoyl)-2-(7-oxo-6,8-diazaspiro[3.5]nonan-6-yl)-2,3-dihydro-1H-inden-5-yl)amino)-2-oxoethyl)-1-methyl-1H-pyrazole-5-carboxamide]	42.3	5.8
CNC(=O)C1(N2CC3(CCC3)CNC2=O)Cc2ccc(NC(=O)[C@@H](NC(=O)c3nonc3C)C3CCCCC3)cc2C1 (stereo partly drawn) [Example 110, N-((1S)-1-cyclohexyl-2-((2-(methylcarbamoyl)-2-(7-oxo-6,8-diazaspiro[3.5]nonan-6-yl)-2,3-dihydro-1H-inden-5-yl)amino)-2-oxoethyl)-4-methyl-1,2,5-oxadiazole-3-carboxamide]	76.5	15
CNC(=O)C1(N2C[C@@H](C(C)C)NC2=O)Cc2ccc(NC(=O)C(NC(=O)c3ccnn3C)C3C4CC5CC(C4)CC3C5)cc2C1 (stereo partly drawn) [Example 111, N-(1-((1R,3S,5R,7R)-adamantan-2-yl)-2-((2-((R)-4-isopropyl-2-oxoimidazolidin-1-yl)-2-(methylcarbamoyl)-2,3-dihydro-1H-inden-5-yl)amino)-2-oxoethyl)-1-methyl-1H-pyrazole-5-carboxamide]	112	55
CNC(=O)C1(N2C[C@@H](C(C)C)NC2=O)Cc2ccc(NC(=O)C(NC(=O)c3ccnn3C)C3CCC4(CC3)CC4)cc2C1 (stereo partly drawn) [Example 112, N-(2-((2-((R)-4-isopropyl-2-oxoimidazolidin-1-yl)-2-(methylcarbamoyl)-2,3-dihydro-1H-inden-5-yl)amino)-2-oxo-1-(spiro[2.5]octan-6-yl)ethyl)-1-methyl-1H-pyrazole-5-carboxamide]	181	41
CNC(=O)C1(N2CC(C)(C3CC3)CNC2=O)Cc2ccc(NC(=O)[C@@H](NC(=O)c3ccnn3C)C3CCCCC3)cc2C1 (stereo partly drawn) [Example 113, N-((1S)-1-cyclohexyl-2-((2-(5-cyclopropyl-5-methyl-2-oxotetrahydropyrimidin-1(2H)-yl)-2-(methylcarbamoyl)-2,3-dihydro-1H-inden-5-yl)amino)-2-oxoethyl)-1-methyl-1H-pyrazole-5-carboxamide]	457	53
CNC(=O)C1(N2CC3(CC3)CNC2=O)Cc2ccc(NC(=O)[C@@H](NC(=O)c3ccnn3C)C(C3CC3)C3CC3)cc2C1 (stereo partly drawn) [Example 114, N-((2S)-1,1-dicyclopropyl-3-((2-(methylcarbamoyl)-2-(6-oxo-5,7-diazaspiro[2.5]octan-5-yl)-2,3-dihydro-1H-inden-5-yl)amino)-3-oxopropan-2-yl)-1-methyl-1H-pyrazole-5-carboxamide]	57.2	73.9
CNC(=O)C1(N2CC3(CC3)CNC2=O)Cc2ccc(NC(=O)[C@@H](NC(=O)c3ccnn3C(C)C)C(C3CC3)C3CC3)cc2C1 (stereo partly drawn) [Example 115, N-((2S)-1,1-dicyclopropyl-3-((2-(methylcarbamoyl)-2-(6-oxo-5,7-diazaspiro[2.5]octan-5-yl)-2,3-dihydro-1H-inden-5-yl)amino)-3-oxopropan-2-yl)-1-isopropyl-1H-pyrazole-5-carboxamide]	72.4	258

Reference: patent US20250154138A1, “Small Molecule IL-17A Modulators” (BeiGene, Ltd., priority 2022, published 2025)
